Assays:
[1] = test system: antigen induced broncho-constriction in sensitized guinea pigs; assay: Inhibition of anaphylactic bronchospasm in sensitized guinea pigs (ovalbumin challenge); type: in vivo, guinea pig; conditions: 2 hours before ovalbumin challenge, vs vehicle-treated control
Procedure: The compounds of this invention may be employed as anti-allergy agents in the treatment of, for example, asthma, allergic or seasonal rhinitis, and/or chronic bronchitis. The anti-allergy method of this invention is identified by tests which measure a compound's inhibition of anaphylactic bronchosoasm in sensitized guinea pigs having antigen induced broncho-constriction.
In one such test procedure, male Hartley guinea pigs (250-300 g) are sensitized with 5 mg ovalbumin injected i.p. and 5 mg injected s.c. in 1 ml saline on day 1 and 5 mg ovalbumin injected i.p. on day 4. The sensitized animals are used 3-4 weeks later at which time they weigh 450-500 g.
The sensitized guinea pigs are fasted overnight and the following morning are anesthetized with 0.9 ml/kg i.p. of dialurethane (0.1 g/ml diallybarbituric acid, 0.4 g/ml ethylurea and 0.4 g/ml urethane). The trachea are cannulated and the animals are ventilated by a Harvard® rodent respirator at 50 strokes/minute with a stroke volume of 5 ml. A side arm to the tracheal cannula is connected to a pressure transducer (Harvard) to obtain a continuous measure of intratracheal pressure which is recorded on a polygraph (Harvard). The jugular vein is cannulated for the i.v. administration of substances. The animals are challenged with antigen (0.5% ovalbumin) as an aerosol generated from a DeVilbiss® Model 65 ultrasonic nebulizer and delivered through the tracheal cannula for 30 seconds. Bronchoconstriction is measured as the peak increase in intratracheal pressure occurring within 5 minutes after antigen challenge.
The sensitized guinea pigs are injected i.v. with 1 mg/kg propranolol, 5 mg/kg indomethacin and 2 mg/kg mepyramine given together in a volume of 1 ml/kg. Fifteen minutes later the animals are challenged with nebulized ovalbumin. Test compounds are administered orally 2 hours before challenge with ovalbumin. Suppression of anaphylactic bronchospasm is expressed as a percent inhibition of the peak increase in intratracheal pressure by comparison to a vehicle-treated control group.

[2] = test system: Reversed Passive Arthus Response in the right rear paw of rats; assay: Reversed Passive Arthus Response (RPAR), rat paw volume; type: in vivo; conditions: 25 mg/kg p.o. once daily for 3 days
Procedure: Male Lewis inbred albino rats weighing 180-200 grams obtained from Charles River Breeding Laboratories are used in these experiments. The rats are housed 3 animals/cage and food and water are allowed ad libitum. The animals are numbered 1-3 in each cage and color marked for identification purposes.
All reagents and drugs are prepared just prior to the study. Crystallized and lyophilized bovine serum albumin (BSA), available from Sigma Chemical Company, is solubilized without shaking in cold, sterile, pyrogen-free saline (10 mg/ml). Lyophilized anti-bovine serum albumin (IgG fraction), obtained from Cappel Laboratories, is suspended in sterile distilled water and diluted with cold, pyrogen-free saline (PFS) just prior to use. […]
Groups of animals (6/group) are dosed with drug in MC by gavace once daily for 3 days. […] The volume of mercury displaced is converted to weight and recorded. This value is considered to be the control reading for the animal. Paw volumes are subsequently recorded with a plethysmograph during the development of the inflammation at 2 and 4 hours post-challenge.
Results are expressed by the chance in paw volume (Δ paw volume) from the control reading for each animal to that recorded 2 and 4 hours post-challenge. […] Differences from control in drug-treated groups are expressed as percent change from control are determined.

[3] = test system: reverse passive Arthus reaction in the pleural cavity of rats; assay: Reverse passive Arthus reaction in the pleural cavity of rats (Myers et al.); type: in vivo; conditions: Rattus norvegicus, po; pleural fluid
Procedure: Another procedure for testing for acute anti-inflammatory activity measures the reverse passive Arthus reaction in the pleural cavity of rats as described in Myers et al., Inflammation, Vol. 9, No. 1, 1985, pp. 91-98. Compound A provided an ED50 value (fluid) of about 5.0 mg/kg p.o. in such procedure.

[4] = test system: GVHR splenomegaly in C57 B1/6XA/J(F6AF1) male mice; assay: Graft vs. host reaction (GVHR), spleen weight; type: in vivo, mouse; conditions: 100 mg/kg orally for 10 days; compared to untreated animals
Procedure: To induce a GVHR, C57 B1/6XA/J(F6AF1) male mice were injected intravenously with parental (C57B/6J) spleen and lymph node cells. 3-(2-Hydroxyethyl)-1-phenyl-1,8-naphthyridin-2(1H)-one (Compound A) was then administered orally for 10 days beginning on the day prior to the cell transfer. On the day following the last treatment, the animals were sacrificed, and their spleens were excised and weighed. The enlargement of the spleen of the host is a result of a GVHR. To some extent it is the host's own cells which infiltrate and enlarge the spleen although they do this because of the presence of graft cells reacting against the host. The amount of spleen enlargement, splenomegaly, is taken as a measure of the severity of the GVHR.
In carrying out the GVHR the animal in the experimental group is injected with parental cells, cells of the same species but of different genotype, which cause a weight increase of the spleen. […] The effectiveness of the compounds administered to the mice in the experimental group is measured by comparing the spleen weight of the untreated and treated GVH animal with that of the syngeneic control. Compound A in this test procedure reduced spleen weight by 92% at a dose of 100 mg/kg as compared to the untreated animals.

[5] = test system: spleen weight of BDF1 mice; assay: Splenic atrophy, decrease in spleen weight; type: in vivo; conditions: Mus musculus, oral, seven consecutive days
Procedure: The immunosuppressive activity of the compounds may also be shown by a decrease in spleen weight after dosing BDF1 mice orally with the drug for seven (7) consecutive days. The mice are sacrificed on the eighth day. The percent decrease in spleen weight is measured for each dosage level. In this procedure, Compound A provided an ED30 of less than 25 mg/kg.

[6] = Carboni et al., Farmaco, Ed. Sci., 1973; cited from earlier work

O=c1c(CCO)cc2cccnc2n1-c1cccc(Cl)c1 [B]
% Inhibition of anaphylactic bronchospasm (peak increase in intratracheal pressure) ([1]; dose p.o. 2 mg/kg): 79%

COCCOc1c(C)c2cccnc2n(-c2ccccc2)c1=O [Compound C]
% Inhibition of anaphylactic bronchospasm (peak increase in intratracheal pressure) ([1]; dose p.o. 5 mg/kg): 25%
% inhibition (Δ paw volume) after 2 hours ([2]; 2 hours post-challenge): 74%
% inhibition (Δ paw volume) after 4 hours ([2]; 4 hours post-challenge): 36%

O=c1c(CCO)cc2cccnc2n1-c1ccccc1 [Compound A, 3-(2-Hydroxyethyl)-1-phenyl-1,8-naphthyridin-2(1H)-one]
% Inhibition of anaphylactic bronchospasm (peak increase in intratracheal pressure) ([1]; dose p.o. 5 mg/kg): 78%
ED50 [3]: ~5 mg/kg
reduction of spleen weight [4]: 92%
ED30 [5]: < 25 mg/kg

O=c1ccc2ccc(OCc3ccccc3)nc2n1Cc1ccccc1 [1-benzyl-7-benzyloxy-[1,8]naphthyridin-2-one]
antibacterial activity [6]: inactive
